Laboratory results as given in patent publication US9198906B2, “Ketoconazole enantiomer in humans” (Cortendo AB (publ), priority 2006, dated 2015).

Experiments:
[1] = system: patients with type 2 diabetes mellitus; experiment: Phase 2a trial, HbA1c (glycemic control); assay type: in vivo, human
Protocol: (§1) Five (5) dose groups were studied.
(§2) The first dose of the study drug was given on Day 1 at 2200 h. Activity markers measured on Day 1 prior to administration of the drug (“Visit 1”). The last dose of study drug was given on Day 14 at 2200 h and activity markers measured on Day 15 (“Visit 3”). Measurements of safety markers were taken on Visits 1 and 3, as well as Visit 2 (Day 8) and Visit 4 (Day 28).
This test measure levels of glycated hemoglobin and reflects the average blood glucose level for a subject over the preceding 3 months (approximately). Elevated levels are common in diabetics. Lowering the hemoglobin A1c number can delay or prevent the development of serious eye, kidney, and nerve disease in individuals with diabetes.

[2] = system: patients with type 2 diabetes mellitus; experiment: Phase 2a trial, total cholesterol; assay type: in vivo, human
Protocol: as §1, §2

healthy volunteers = settings: published reports, e.g. Morganroth et al. 1997; cited from earlier work
[3] = system: patients with type 2 diabetes mellitus; experiment: Phase 2a trial, fructosamine (glycemic control); assay type: in vivo, human
Protocol: as §1, §2
Fructosamine levels were measured at baseline and after two weeks of therapy (see Table 4 and FIGS. 1 and 2). […] Fructosamine levels reflect blood glucose levels over the preceding 2-3 weeks.

[4] = system: patients with type 2 diabetes mellitus; experiment: Phase 2a trial, liver function tests (AST/ALT/AP); settings: Subject 04-016, KTZ 400 mg
Protocol: as §2

[5] = system: patients with type 2 diabetes mellitus; experiment: Phase 2a trial, continuous blood pressure monitoring; assay type: in vivo, human; settings: Visits 1 and 3, 14 daily doses
Protocol: as §1
Continuous blood pressure monitoring was performed during Visits 1 and 3.

[6] = system: patients with type 2 diabetes mellitus; experiment: Phase 2a trial, LDL cholesterol; assay type: in vivo, human
Protocol: as §1, §2

[7] = system: patients with type 2 diabetes mellitus; experiment: Phase 2a trial, C-reactive protein (marker of inflammation); assay type: in vivo, human
Protocol: as §1, §2

[8] = 400 mg po QD, 14 daily doses, Visit 3 (Day 15)
[9] = 400 mg po QD group, Visit 1 (baseline, before first dose)

## CC(=O)N1CCN(c2ccc(OCC3COC(Cn4ccnc4)(c4ccc(Cl)cc4Cl)O3)cc2)CC1 (racemic) [KTZ, 1-acetyl-4-[4-[[2-(2,4-dichlorophenyl)-2-[(1H-imidazol-1-yl)-methyl]-1,3-dioxolan-4-yl]methoxy]phenyl]piperazine, reference compound]
[1]; 400 mg po QD group, Visit 1 (Day 1, before first dose, baseline)
  Visit 1 HbA1c mean: 8.05%
[1]; 400 mg po QD, 14 daily doses
  HbA1c Change vs Baseline mean: −0.37%
[1]; [8]
  Visit 3 HbA1c mean: 7.68%
[2]; [9]
  Total cholesterol Visit 1 mean: 198.14 mg/dL
[2]; 400 mg po QD, 14 daily doses
  Total cholesterol Change mean: -33.57 mg/dL
  Total cholesterol Mean % change: −15.46%
[2]; [8]
  Total cholesterol Visit 3 mean: 164.57 mg/dL
Healthy volunteers
  effect on QTc interval: does not increase
[3]; [9]
  Fructosamine Visit 1 mean: 272.57 µmol/L
[3]; 400 mg po QD, 14 daily doses
  Fructosamine Change vs Baseline mean: -2.29 µmol/L
[3]; [8]
  Fructosamine Visit 3 mean: 270.29 µmol/L
[4]; Screening Visit
  ALT: 28 u/L
  AP: 110 u/L
  AST: 33 u/L
[4]; Visit 1 (pre-1st dose)
  ALT: 37 u/L
  AP: 109 u/L
  AST: 53 u/L
[4]; Visit 2
  ALT: 19 u/L
  AP: 137 u/L
  AST: 36 u/L
[4]; Visit 3 (last dose)
  ALT: 18 u/L
  AP: 103 u/L
  AST: 31 u/L
[5]
  effect on blood pressure readings: no reductions
[6]; [9]
  LDL cholesterol Visit 1 mean: 118.71 mg/dL
[6]; 400 mg po QD, 14 daily doses
  LDL cholesterol Mean % change: −24.73%
  LDL cholesterol change mean: -30.43 mg/dL
[6]; [8]
  LDL cholesterol Visit 3 mean: 88.29 mg/dL
[7]; [9]
  C-Reactive Protein (CRP) Visit 1 mean: 2.28 mg/L
[7]; 400 mg po QD, 14 daily doses
  CRP Mean % change vs baseline: 9.78%
[7]; [8]
  C-Reactive Protein (CRP) Visit 3 mean: 2.22 mg/L
[7]; 14 daily doses
  effect on CRP: did not reduce CRP levels and actually led to an increase in CRP
